Reference: US20150299648A1, “IMPROVED CULTIVATION MEDIA AND PROCESS FOR IMPROVED PROTEIN PRODUCTION BY PICHIA STRAINS” (priority 2012, published 2015)
“Also recorded” adds a separate entry of the source.

Assays:
[1] = system: P. pastrois strain yGLY21058; experiment: Fermentability of sugars or sugar alcohols on M agar plate; format: cell-based, Pichia pastoris; settings: 6 days at 30° C.; for Fermentability category from colony formation on the plate: minimal agar plate; for Growth on M agar: single carbon source 1% w/v
Method: The 1 mL of RCB (Research Cell Bank in 20% of glycerol) for P. pastrois strain yGLY21058 producing glycosylated insulin precursor (GIP) was inoculated in 200 mL of Seed medium (4% glycerol, 1% yeast extract, 2% soytone, 1.34% YNB without amino acids, 0.23% K2HPO4, 1.19% KH2PO4, 8 μg/L biotin) and cultivated for 48 h at 24° C. The cell pellet was harvested by centrifugation at 4,000 rpm for 10 min and re-suspended with PBS buffer (pH 7.4) to wash the cell twice. The 0.1 mL of cell suspension with wash buffer was transferred and spread onto the minimal agar plate containing each sugar or sugar alcohol (1% w/v), which is listed in Table 1.
YPD (1% yeast extract, 2% yeast peptone, and 1% glucose) agar plate was used for the positive control and a minimal agar plate without carbon sources (M) was used for negative control. Growth of Pichia pastoris on M agar plate containing single carbon source was categorized as no (−), slow (+), moderate (++), and fast (+++) colony formation for 6 days in Table 1.

[2] = system: P. pastoris YGLY21058 strain producing glycosylated insulin precursor (GIP); experiment: Screening of sugars and sugar alcohols as osmoprotectants in fed-batch cultivation; format: cell-based, Pichia pastoris; settings: for Index of cell lysis (double stranded DNA released into culture medium): 50 g/L in initial batch BSGY, 80 h of induction; for Intact GIP molecule after 80 h-induction (SDS-PAGE): 50 g/L in initial batch medium of BSGY
Method: The P. pastoris YGLY21058 strain was cultivated in 1 L glass bioreactors (DASGIP, Germany). For fermentation in 1 L bioreactor, a vial (1 mL) of RCB (Research Cell Bank) was inoculated into 200 mL of Seed medium in 1 L-baffled flask. The culture incubated at 24° C., while shaking on an orbital shaker at 180 rpm for 48±4 h. The bioreactor was inoculated with a 10% volumetric ratio of seed to initial BSGY medium. Cultivation conditions were following: temperature set at 24±0.5° C., pH controlled at 6.5±0.1 with 30% ammonium hydroxide, dissolved oxygen was maintained at 20% of saturation by cascading agitation rate on the addition of pure oxygen to the fixed airflow rate of 0.7 vvm. After depletion of the initial glycerol (4%), a 50% glycerol solution containing 12.5 mL/L of PTM1 salts (6.5 g FeSO4.7H2O, 2.0 g ZnCl2, 0.6 g CuSO4.5H2O, 3.0 g MnSO4.7H2O, 0.5 g CoCl2.6H2O, 0.2 g NaMoO4.2H2O, 0.2 g biotin, 80 mg NaI, 20 mg H3BO4 per L) was fed constantly at an initial rate of 0.08 h^−1 for 8 h. Induction was initiated after a 30 min starvation phase when methanol was fed. Methanol was fed constantly starting at 1.33 g/L/h under methanol limited condition. Agitation speed was changed from cascade mode with agitation speed and pure oxygen.
For comparisons, each sugar or sugar alcohol was added at 50 g/L in initial batch medium of BSGY. In case of control without sugar supplementation (BSGY medium only), glycosylated insulin precursor (GIP) was detectable at 58 h of induction, but not detected at 80 h of induction due to most likely proteolytic degradation caused by heavy cell lysis (Lanes 1 and 2 of FIG. 2 A).

[3] = Osmolality of sugar and sugar alcohol solutions (osmometer); format: physicochemical; settings: 500 mM in water
Method: The sugar and sugar alcohol solutions used as osmoprotectant supplements were prepared at 500 mM in water and their osmolalities were measured using Osmometer (Multi-somotte, Model 2430, Precision Systems Inc, MA, USA). The osmolality of solution was directly proportional to the concentration of component in solution. For instance there was a linear relationship between sorbitol concentration (mM) and osmolality of the solution (mOsm/kg) as shown in FIG. 1A. The osmolalities of maltitol, sorbitol, glycerol, and glucose at 500 mM in water were 590±4, 544±3, 541±3, and 568±0 mOsm/kg respectively (FIG. 1B). The osmolaties of sorbose, mellibiose, ribose, quinic acid and myo-inositol at 500 Mm in water were (480±5), (500±5), (470±5), (480±5) AND (510±10), respectively.

[4] = system: P. pastoris YGLY 21058 strain; experiment: Fermentability of sorbitol and maltitol determined by HPLC; format: cell-based, Pichia pastoris; settings: BSGY; maltitol 50 g/L; methanol induction phase
Method: The P. pastoris YGLY 21058 strain was cultivated in 1 L bioreactor and 50 g/L of maltitol was mixed in BSGY medium. The samples were taken at the beginning of fermentation, at the end of glycerol fed-batch before adding maltitol, and two different time-points in methanol induction phase, as shown in FIG. 3. The supernatant was separated by the centrifugation at 13,000 rpm for 1 minutes using micro-centrifuge. The samples properly diluted with distilled water were filtered using 0.2 μm-filter and the residual concentrations of sorbitol and maltitol were determined by HPLC using AMINEX HPX-87H column. The residence times (RTs) for sorbitol and maltitol were 11.5 and 9.3 min respectively. The data were shown in FIG. 3 as two independent runs of cultivation.

Row | Compound | Fermentability category from colony formation on the plate [1] | Growth on M agar [1] | Index of cell lysis (double stranded DNA released into culture medium) [2] | Intact GIP molecule after 80 h-induction (SDS-PAGE) [2] | Osmolality of solution [3] [mOsm/kg] | Robustness of Pichia production strains ([2]; methanol induction phase of cultivation) | Consumption / fermentability in fed-batch fermentation (residual concentration by HPLC) [4]
1 | O=C[C@@H](O)[C@H](O)[C@H](O)CO [D-Arabinose] | strict non-fermentable substrates | − | much lower than that of control | intact GIP molecule was maintained |  |  | 
2 | O=C(O)[C@H](O)[C@@H](O)[C@H](O)[C@H](O)CO [D-Gluconate] | very slow colony formation | + |  |  |  |  | 
3 | O=C1O[C@H](CO)[C@@H](O)[C@H](O)[C@H]1O [D-Glucono-1,5-lactone] | strict non-fermentable substrates | − |  |  |  |  | 
4 | O=C[C@H](O)[C@@H](O)[C@H](O)[C@H](O)CO [D-Glucose] |  | +++ |  |  | 568±0 |  | 
5 | OC[C@H]1O[C@H](O[C@H]2[C@H](O)[C@@H](O)[C@H](O)O[C@@H]2CO)[C@H](O)[C@@H](O)[C@@H]1O [D-Maltose] | strict non-fermentable substrates | − |  |  |  | significantly improved the robustness | 
6 | OC[C@H]1O[C@H](OCC2O[C@@H](O)[C@H](O)[C@@H](O)[C@@H]2O)[C@H](O)[C@@H](O)[C@H]1O (stereo partly drawn) [D-Melibiose] | very slow colony formation | + |  | intact GIP molecule was maintained | 500±5 |  | 
7 | O=C(O)[C@]1(O)C[C@@H](O)[C@@H](O)[C@H](O)C1 [D-Quinic acid] | strict non-fermentable substrates | − |  |  | 480±5 |  | 
8 | OC[C@H]1O[C@H](OC[C@H]2O[C@H](O[C@]3(CO)O[C@H](CO)[C@@H](O)[C@@H]3O)[C@H](O)[C@@H](O)[C@@H]2O)[C@H](O)[C@@H](O)[C@H]1O [D-Raffinose] |  | ++ |  |  |  |  | 
9 | OC[C@@H](O)[C@@H](O)[C@@H](O)CO [D-Ribitol] | strict non-fermentable substrates | − |  |  |  |  | 
10 | O=C[C@H](O)[C@H](O)[C@H](O)CO [D-Ribose] | very slow colony formation | + | much lower than that of control | intact GIP molecule was maintained | 470±5 |  | 
11 | OC[C@@H](O)[C@@H](O)[C@H](O)[C@@H](O)CO [D-Sorbitol] |  | +++ |  |  | 544±3 |  | actively metabolized; also recorded: highly fermentable
12 | O=C[C@H](O)[C@@H](O)[C@H](O)CO [D-Xylose] | very slow colony formation | + |  |  |  |  | 
13 | OCC(O)CO [Glycerol] |  | +++ |  |  | 541±3 |  | 
14 | OC[C@H](O)C(O)[C@@H](O)CO [L-Arabitol] | strict non-fermentable substrates | − |  |  |  |  | 
15 | O=C(CO)[C@@H](O)[C@H](O)[C@@H](O)CO [L-Sorbose] | very slow colony formation | + |  | intact GIP molecule was maintained | 480±5 |  | 
16 | OC[C@@H](O)[C@H](O)[C@@H](O)CO [Xylitol] | strict non-fermentable substrates | − |  |  |  |  | 
17 | O[C@H]1[C@H](O)[C@@H](O)[C@H](O)[C@@H](O)[C@H]1O [myo-Inositol] | very slow colony formation | + | much lower than that of control | intact GIP molecule was maintained | 510±10 |  | 
18 | OC[C@H]1O[C@H](O[C@H]2O[C@H](CO)[C@@H](O)[C@H](O)[C@H]2O)[C@H](O)[C@@H](O)[C@@H]1O [α,α-Trehalose] |  | ++ |  |  |  |  | 
19 | Inulin | very slow colony formation | + |  |  |  |  | 
